The nature of data set [1]: Inhibition of HCV NS3 protease by continuous spectrophotometric assay. Further details: species or system Hepacivirus hominis.
For data set [2], the system named is Hepatitis C virus. Description: Antiviral activity against Hepatitis C virus infected in human hepatoma cell by replicon assay. The format is functional, Hepacivirus hominis.
The nature of data set [3]: AUC (0 to 6 hrs) in rat at 10 mg/kg, po. The format is ADME, organism-based. Further details: time < 6 hr, dose 10 mg/kg, route oral. The note with it: plasma.
The next data set relates to Rattus norvegicus. Description: AUC (0 to 6 hrs) in po dosed rat. The format is ADME, organism-based, Plasma. The note with it: in vivo. Further details: time < 6 hr, route oral.
Data set [4] has as its system Hepatitis C virus. The experiment in a line: Ratio of boceprevir EC90 to compound EC90 for Hepatitis C virus infected in human hepatoma cell. The format is functional, Hepacivirus hominis.
Data set [5] is described as follows: Selectivity for HCV NS3 protease over human neutrophil elastase.
Data set [6] in a line: AUC (0 to 6 hrs) in monkey at 3 mg/kg, po. The format is ADME, organism-based, Macaca mulatta. The note with it: rhesus monkey, plasma. Further details: time < 6 hr, dose 3 mg/kg, route oral.

Results on 26 compounds are retold here after ChEMBL document CHEMBL1154065, “Discovery of novel P3 sulfonamide-capped inhibitors of HCV NS3 protease. Inhibitors with improved cellular potencies” (Bioorg Med Chem, 2009).

Each structure is given as a SMILES string.

The compound `CC(C)[C@@H](CN(C)S(=O)(=O)c1cccs1)NC(=O)N[C@H](C(=O)N1C[C@H]2[C@@H]([C@H]1C(=O)NC(CC1CCC1)C(=O)C(N)=O)C2(C)C)C(C)(C)C` (some centres undefined) displayed a Ki in data set [1] of 12 nM. In the data set on Hepatitis C virus [2], this compound returned a 90% effect concentration (EC90) of 100 nM.
The compound `CC(C)(C)[C@H](NC(=O)N[C@H](CNS(=O)(=O)c1ccccc1)C(C)(C)C)C(=O)N1C[C@H]2[C@@H]([C@H]1C(=O)NC(CC1CCC1)C(=O)C(N)=O)C2(C)C` (some centres undefined) returned an inhibition constant (Ki) in data set [1] of 13 nM.
`C=CCNC(=O)C(=O)C(CCCC)NC(=O)[C@@H]1[C@@H]2[C@H](CN1C(=O)[C@@H](NC(=O)N[C@H](CN(C)S(=O)(=O)N(C)C)C(C)(C)C)C1CCCCC1)C2(C)C` (some centres undefined) came in with a Ki in data set [1] of 6 nM. Besides, it took 80 nM to reach the 90% level in the data set with Hepatitis C virus [2] (EC90). The compound also came in with an area under the curve AUC(0-t) at 6 h in data set [3] of 1.74 µM·h.
Consider `CN(C[C@@H](NC(=O)N[C@H](C(=O)N1C[C@H]2[C@@H]([C@H]1C(=O)NC(CC1CCC1)C(=O)C(N)=O)C2(C)C)C(C)(C)C)C(C)(C)C)S(=O)(=O)c1ccccc1` (some centres undefined), for which the Ki in data set [1] amounted to 5 nM. In the data set with Hepatitis C virus [2], this compound displayed an EC90 of 75 nM.
The like results for `CC(C)[C@H](NC(=O)N[C@H](C(=O)N1C[C@H]2[C@@H]([C@H]1C(=O)NC(CC1CC1)C(=O)C(N)=O)C2(C)C)C(C)(C)C)C(=O)OC(C)(C)C` (some centres undefined) were, in that order, 6 nM and 200 nM.
Compound `CN(C[C@@H](NC(=O)N[C@H](C(=O)N1C[C@H]2[C@@H]([C@H]1C(=O)NC(CC1CCC1)C(=O)C(N)=O)C2(C)C)C(C)(C)C)C(C)(C)C)S(=O)(=O)C1CC1` (some centres undefined) displayed an inhibition constant (Ki) in data set [1] of 5 nM. In the data set with Hepatitis C virus [2], the concentration for an effect of 90% (EC90) worked out at 90 nM. In addition, in the data set with Rattus norvegicus, the AUC turned out to be 0.09 µM·h.
Regarding `CC(C)[C@@H](CNS(C)(=O)=O)NC(=O)N[C@H](C(=O)N1C[C@H]2[C@@H]([C@H]1C(=O)NC(CC1CCC1)C(=O)C(N)=O)C2(C)C)C(C)(C)C` (some centres undefined), in data set [1], the Ki stood at 31 nM. In the data set on Hepatitis C virus [2], this compound showed a 90% effect concentration (EC90) of 2000 nM.
In data set [1], `CC(C)[C@@H](CN(C)S(C)(=O)=O)NC(=O)N[C@H](C(=O)N1C[C@H]2[C@@H]([C@H]1C(=O)NC(CC1CCC1)C(=O)C(N)=O)C2(C)C)C(C)(C)C` (some centres undefined) showed an inhibition constant Ki of 4 nM. In the data set on Hepatitis C virus [2], the 90% effect concentration (EC90) stood at 350 nM.
In data set [1], `CN(CC1(NC(=O)N[C@H](C(=O)N2C[C@H]3[C@@H]([C@H]2C(=O)NC(CC2CCC2)C(=O)C(N)=O)C3(C)C)C(C)(C)C)CCCCC1)S(=O)(=O)c1ccccc1` (some centres undefined) had a Ki of 12 nM. The compound further registered an EC90 with Hepatitis C virus [2] of 400 nM.
The compound `CC(C)[C@@H](CNS(=O)(=O)c1ccccc1)NC(=O)N[C@H](C(=O)N1C[C@H]2[C@@H]([C@H]1C(=O)NC(CC1CC1)C(=O)C(N)=O)C2(C)C)C(C)(C)C` (some centres undefined) showed a Ki in data set [1] of 10 nM. In addition, it took 550 nM to reach the 90% level with Hepatitis C virus [2] (EC90).
In the case of `C=CCNC(=O)C(=O)C(CCC)NC(=O)[C@@H]1[C@@H]2[C@H](CN1C(=O)[C@@H](NC(=O)N[C@H](CN(C)S(=O)(=O)c1cccs1)C(C)(C)C)C(C)(C)C)C2(C)C` (some centres undefined), in data set [1], affinity was put at a Ki of 10 nM. This compound gave a concentration for an effect of 90% (EC90) in the data set on Hepatitis C virus [2] of 260 nM. Further, the area under the curve (AUC) in the data set with Rattus norvegicus worked out at 1.38 µM·h.
Compound `CN(C[C@@H](NC(=O)N[C@H](C(=O)N1C[C@H]2[C@@H]([C@H]1C(=O)NC(CC1CCC1)C(=O)C(N)=O)C2(C)C)C(C)(C)C)C(C)(C)C)S(C)(=O)=O` (some centres undefined) registered a Ki in data set [1] of 5 nM. Further, in the data set on Hepatitis C virus [2], the EC90 was 150 nM. The compound also registered an AUC in the data set with Rattus norvegicus of 0.06 µM·h. Further, the Ratio with Hepatitis C virus [4] stood at 2.
For `CCS(=O)(=O)N(C)C[C@@H](NC(=O)N[C@H](C(=O)N1C[C@H]2[C@@H]([C@H]1C(=O)NC(CC1CCC1)C(=O)C(N)=O)C2(C)C)C(C)(C)C)C(C)(C)C` (some centres undefined), in data set [1], the inhibitory constant (Ki) came to 4 nM. In the data set on Hepatitis C virus [2], this compound returned a 90% effect concentration (EC90) of 150 nM.
On the same counts, the results for `CC[C@H](C)[C@@H](CN(C)S(=O)(=O)c1ccccc1)NC(=O)N[C@H](C(=O)N1C[C@H]2[C@@H]([C@H]1C(=O)NC(CC1CCC1)C(=O)C(N)=O)C2(C)C)C(C)(C)C` (some centres undefined) are 13 nM and 250 nM.
`C=CCNC(=O)C(=O)C(CCC)NC(=O)[C@@H]1[C@@H]2[C@H](CN1C(=O)[C@@H](NC(=O)N[C@H](CN(C)S(=O)(=O)CC)C(C)(C)C)C(C)(C)C)C2(C)C` (some centres undefined) displayed an inhibition constant (Ki) in data set [1] of 10 nM. Further, the 90% effect concentration (EC90) with Hepatitis C virus [2] was 150 nM. Moreover, the AUC in the data set with Rattus norvegicus was 0.34 µM·h.
`CC(C)C(CN(C)S(=O)(=O)c1ccccc1)NC(=O)N[C@H](C(=O)N1C[C@H]2[C@@H]([C@H]1C(=O)NC(CC1CCC1)C(=O)C(N)=O)C2(C)C)C(C)(C)C` (single isomer, unassigned) came in with a Ki in data set [1] of 8 nM. Further, it took 140 nM to reach the 90% level with Hepatitis C virus [2] (EC90). For the same compound, the Selectivity ratio in data set [5] is 3100.
In data set [1], `C=CCNC(=O)C(=O)C(CCCC)NC(=O)[C@@H]1[C@@H]2[C@H](CN1C(=O)[C@@H](NC(=O)N[C@H](CN(C)S(=O)(=O)CC)C(C)(C)C)C1Cc3ccccc3C1)C2(C)C` (some centres undefined) registered an inhibitory constant (Ki) of 6 nM. For the same compound, the 90% effect level with Hepatitis C virus [2] (EC90) was put at 60 nM. In addition, the AUC(0-t) at 6 h in data set [3] was 1.2 µM·h; in data set [6], 0.69 µM·h. Besides, in the data set on Hepatitis C virus [4], the Ratio amounted to 5.
With `CC(C)(C)NC(=O)N[C@H](C(=O)N1C[C@H]2[C@@H]([C@H]1C(=O)NC(CC1CCC1)C(=O)C(N)=O)C2(C)C)C(C)(C)C` (some centres undefined) [BOCEPREVIR], in data set [1], the affinity, expressed as Ki, was 14 nM. For the same compound, the EC90 in the data set with Hepatitis C virus [2] was 350 nM. In addition, in data set [5], the Selectivity ratio was 2200.
The like results for `CC(C)[C@H](CN(C)S(=O)(=O)c1ccccc1)NC(=O)N[C@H](C(=O)N1C[C@H]2[C@@H]([C@H]1C(=O)NC(CC1CC1)C(=O)C(N)=O)C2(C)C)C(C)(C)C` (some centres undefined) were, in that order, 6 nM, 130 nM and 680.
`CN(C[C@@H](NC(=O)N[C@H](C(=O)N1C[C@H]2[C@@H]([C@H]1C(=O)NC(CC1CCC1)C(=O)C(N)=O)C2(C)C)C(C)(C)C)C(C)(C)C)S(=O)(=O)c1cccs1` (some centres undefined): in data set [1], affinity was put at a Ki of 4 nM. For the same compound, the EC90 in the data set on Hepatitis C virus [2] is 60 nM. Besides, in the data set with Rattus norvegicus, the exposure (AUC) stood at 0.11 µM·h.
With `CC(C)[C@@H](CN(C)S(=O)(=O)c1ccccc1)NC(=O)N[C@H](C(=O)N1C[C@H]2[C@@H]([C@H]1C(=O)NC(CC1CC1)C(=O)C(N)=O)C2(C)C)C(C)(C)C` (some centres undefined), the inhibition constant (Ki) in data set [1] was determined as 8 nM. This compound also displayed an EC90 in the data set on Hepatitis C virus [2] of 130 nM.
The like results for `C=CCNC(=O)C(=O)C(CCC)NC(=O)[C@@H]1[C@@H]2[C@H](CN1C(=O)[C@@H](NC(=O)N[C@H](CN(C)S(=O)(=O)N(C)C)C(C)(C)C)C1Cc3ccccc3C1)C2(C)C` (some centres undefined) were, in that order, 11 nM and 100 nM.
Turning to `C=CCNC(=O)C(=O)C(CCC)NC(=O)[C@@H]1[C@@H]2[C@H](CN1C(=O)[C@@H](NC(=O)N[C@H](CN(C)S(=O)(=O)c1ccccn1)C(C)(C)C)C(C)(C)C)C2(C)C` (some centres undefined), the affinity in data set [1] corresponds to a Ki of 14 nM. Moreover, the concentration for an effect of 90% (EC90) with Hepatitis C virus [2] is 180 nM. Further, the AUC in the data set with Rattus norvegicus was 1.02 µM·h.
Take `CC(C)C[C@@](C)(CN(C)S(=O)(=O)c1ccccc1)NC(=O)N[C@H](C(=O)N1C[C@H]2[C@@H]([C@H]1C(=O)NC(CC1CCC1)C(=O)C(N)=O)C2(C)C)C(C)(C)C` (some centres undefined): affinity in data set [1] was put at a Ki of 80 nM.
For `CC(C)[C@@H](CNS(=O)(=O)c1cccs1)NC(=O)N[C@H](C(=O)N1C[C@H]2[C@@H]([C@H]1C(=O)NC(CC1CCC1)C(=O)C(N)=O)C2(C)C)C(C)(C)C` (some centres undefined), affinity in data set [1] was put at a Ki of 23 nM. The same compound yielded a 90% effect concentration (EC90) in the data set with Hepatitis C virus [2] of 600 nM.
`C=CCNC(=O)C(=O)C(CCC)NC(=O)[C@@H]1[C@@H]2[C@H](CN1C(=O)[C@@H](NC(=O)N[C@H](CN(C)S(=O)(=O)CC)C(C)(C)C)C1Cc3ccccc3C1)C2(C)C` (some centres undefined) registered a Ki in data set [1] of 6 nM. Besides, it took 100 nM to reach the 90% level in the data set on Hepatitis C virus [2] (EC90).
